Results taken from publication PMC6627374, “Effects of the Pentapeptide P33 on Memory and Synaptic Plasticity in APP/PS1 Transgenic Mice: A Novel Mechanism Presenting the Protein Fe65 as a Target” (International Journal of Molecular Sciences, 2019).
Where a SMILES comes first, the peptide text is derived from it.

Key:
pT^668-APP = assay: Western blot, pT^668-APP level in brain; type: in vivo, mouse; settings: 5 mg∙kg^−1 i.p., five days per week, six months; HC and CTX
Description: (§1) For this study, three-month-old male and female WT and APP/PS1 mice (n = 37) were used. Four groups were defined: WT-vehicle (physiological saline) (male n = 4; female n = 6), WT-P33 (male n = 6; female n = 5), APP/PS1-vehicle (male n = 3; female n = 5), and APP/PS1-P33 (male n = 6; female n = 2). Animals were subjected to intraperitoneal (i.p.) injections of P33 (5 mg∙kg^−1) for five days per week, over a course of six months. The mice were kept in groups under constant temperature (23 ± 0.5 °C), lighting (12-h/12-h light/dark cycle, lights on at 7:00 a.m.), and humidity (~50%). Standard mouse chow and tap water were supplied ad libitum. All behavioral experiments were performed in the light period. Handling was done daily at the same time.
Nine-month-old mice (three animals per group) were euthanized via cervical dislocation. […] To quantify the level of Aβ in the mice, we used a sandwich ELISA Kit (Innotest Amyloid-[…]) from Innogenetics (Gent, Belgium), following the instructions of the manufacturer. The absorbance values were measured at 450 nm on a 96-well plate reader (NOVOstar OPTIMA, BMG Labtech, Offenburg, Germany). […]
The results of spine density and immunohistochemistry experiments were calculated with one-way ANOVA followed by Fisher’s LSD post hoc tests. […] Data were analyzed with SPSS (IBM SPSS Statistics 24), and were expressed as the mean ± standard error of the mean (SEM). […]

PSD95 = assay: Western blot, PSD95 level; type: in vivo, mouse; settings: APP/PS1 mice; 5 mg∙kg^−1 i.p., five days per week, six months
Description: as §1, with “Handling was done daily at the same time.” left out
Protein samples, identically prepared as for ELISA, (20 μg/lane) were separated on a 15% SDS-polyacrylamide gel (80 V, 20 min at RT; than 130 V, 60 min at RT) or on a 4–12% NuPAGE® Bis-Tris Gel (Thermo Fischer Scientific, Waltham, MA, USA, 200V, 30 min at RT) and transferred to a nitrocellulose membrane (Whatman, Maidstone, UK, 450 mA, 90 min at 4 °C). […] Membranes were scanned with a Bio-Rad Molecular Imager® ChemiDoc™ XRS+Imaging System (Bio-Rad Laboratories, Hercules, CA, USA) and evaluated with the Image Lab 4.0 software.
The results of spine density and immunohistochemistry experiments were calculated with one-way ANOVA followed by Fisher’s LSD post hoc tests. […]

C[C@@H](N)C(=O)N1CCC[C@@H]1C(=O)N[C@H](C)C(=O)N1CCC[C@@H]1C(=O)N[C@H](CCC(=O)O)C(N)=O [P33] (HELM PEPTIDE1{[dA].[dP].[dA].[dP].[dE].[am]}$$$$V2.0)
pT^668-APP level, effect of P33 (in words) (pT^668-APP): had no significant effect on the pT^668-APP level | PSD95 level, effect of P33 (in words) (PSD95): could be restored by applying P33 on APP/PS1 mice
